Reference: US10098889B2, “Complexes and salts of dihydropyrimidine derivatives and their application in pharmaceuticals” (SUNSHINE LAKE PHARMA CO., LTD., priority 2015, dated 2018)

Tests used:
Assay type in all cases: physicochemical
[1] = Illumination test (stability study)
Experimental: (§1) Illumination test: an appropriate amount of sample was put in a weighing bottle in the form of a thin layer of ≤5 mm, under a […] for 13 days. Appearance, impurity and purity of the samples were tested respectively at the 5th and 13th day.
(§2) Experimental results of stability study of the compound of (S)-4-(((R)-6-(2-chloro-4-fluorophenyl)-5-(methoxycarbonyl)-2-(thiazol-2-yl)-3,6-dihydropyrimidin-4-yl)methyl)morpholine-3-carboxylic acid amorphous and the complex of (S)-4-(((R)-6-(2-chloro-4-fluorophenyl)-5-(methoxycarbonyl)-2-(thiazol-2-yl)-1,6-dihydropyrimidin-4-yl)methyl)morpholine-3-carboxylic acid and L-tartaric acid and its various salt forms under high temperature, high humidity and illumination conditions are shown in Table 4.

[2] = High humidity test (stability study); details: 25° C.
Experimental: (§3) High humidity test: an appropriate amount of sample was put in a weighing bottle in the form of a thin layer of ≤5 mm, under a temperature of 25° C. for 10 days. Appearance, impurity and purity were tested respectively at the 5th and 10th day. If the moisture-absorption weight of the sample gains more than 5%, then the sample needs to be retested in the same manner under the conditions of 25° C. and RH75%±5%. If the moisture-absorption weight of the sample gains less than 5%, and other results meets the requirements, it is not necessary to do the experiment any more. (Note: the weighing bottle should be presaturated for one day by putting it into the humidistat (or a dryer containing a saturated solution of potassium nitrate) before high humidity test, then weighing the sample and weighing bottle together, and record the weight.)
as §2

[3] = High temperature test (stability study)
Experimental: (§4) High temperature test: an appropriate amount of sample was put in a weighing bottle in the form of a thin layer of ≤5 mm, under a temperature of 60° C. for 10 days. Appearance, impurity and purity of the samples were tested respectively at the 5th and 10th day. […] If the sample has no significant change occurred at 60° C., it is not necessary to do the experiment under the condition of 40° C.
as §2

[4] = Stability studies under high temperature, high humidity and illumination conditions (overall assessment); details: for Stability under high temperature, high humidity and illumination condition (in words): compared with amorphous compound (I)
Experimental: as §4, §3, §1

[5] = Experimental study of hygroscopicity; details: for Weighting percentage of moisture absorption (%): constant humidity
Experimental: A dry glass weighing bottle with a plug was placed in a suitable thermostatic drier at 25° C.±1° C. (ammonium chloride and saturated solution of ammonium sulfate were placed on the bottom) on the day before the experiment, and weighed precisely. The propriate amount of the sample was plated into the weighing bottle, wherein the thickness of the sample typically is about 1 mm, and weighed precisely (m2). The weighing bottle was open and placed with the plug in the above constant temperature and humidity condition for 24 hours. The capped weighing bottle was weighed precisely (m3), and the weight gain percentage was calculated (%).
Test method: according to the Ph. Eur. <5.11>; Ch. P. 2010; II appendix XIX J; Weighting percentage of moisture absorption (%)=(m3−m2)/(m2−m1)×100%
Hygroscopicity characteristics: weighting percentage of moisture absorption
Judgement of Hygroscopicity Result:
(1) Air slaking: absorbing enough water to form liquid
(2) Of quite hygroscopicity: not less than 15%
(3) Of hygroscopicity: less than 15% but not less 2%
(4) Of slight hygroscopicity: less than 2% but not less than 0.2%

Solubility (HPLC) = assay: Solubility (HPLC)
Experimental: The solubility disclosed herein was measured by Aglient 1200 high performance liquid chromatograph VWD detector. The chromatographic column model is Waters Xbridge-C18 (4.6×150 mm, […]). The detection wavelength was 250 nm, the flow rate was 1.0 mL/minute, the column temperature was 35° C., the mobile phase was acetonitrile water (v/v=40/60).

[6] = High temperature, 60° C., 5 days
[7] = High temperature, 60° C., 10 days

Row | SMILES | Appearance ([1]; 5 days) | Purity (%) ([1]; 5 days) | Total impurity (%) ([1]; 5 days) | Appearance ([1]; 13 days) | Purity (%) ([1]; 13 days) | Total impurity (%) ([1]; 13 days) | Appearance ([2]; 5 days) | Purity (%) ([2]; 5 days) | Total impurity (%) ([2]; 5 days) | Appearance ([2]; 10 days) | Purity (%) ([2]; 10 days) | Total impurity (%) ([2]; 10 days) | Appearance ([3]; 0 days) | Purity (%) ([3]; 0 days) | Total impurity (%) ([3]; 0 days) | Appearance [3, 6] | Purity (%) [3, 6] | Total impurity (%) [3, 6] | Appearance [3, 7] | Purity (%) [3, 7] | other results
1 | Br.COC(=O)C1=C(CN2CCOC[C@H]2C(=O)O)N=C(c2nccs2)N[C@H]1c1ccc(F)cc1Cl [(S)-4-(((R)-6-(2-chloro-4-fluorophenyl)-5-(methoxycarbonyl)-2-(thiazol-2-yl)-1,6-dihydropyrimidin-4-yl)methyl)morpholine-3-carboxylic Acid Hydrobromide] | yellow | 97.63% | 2.37% | yellow | 96.06% | 3.94% | yellow | 99.68% | 0.32% | yellow | 99.64% | 0.36% | yellow | 99.70% | 0.30% | yellow | 99.69% | 0.31% | yellow | 99.63% | Total impurity (%) [3, 7]: 0.37%; Stability under high temperature, high humidity and illumination condition (in words) [4]: better stability
2 | COC(=O)C1=C(CN2CCOC[C@H]2C(=O)O)N=C(c2nccs2)N[C@H]1c1ccc(F)cc1Cl.Cl [(S)-4-(((R)-6-(2-chloro-4-fluorophenyl)-5-(methoxycarbonyl)-2-(thiazol-2-yl)-1,6-dihydropyrimidin-4-yl)methyl)morpholine-3-carboxylic Acid Hydrochloride] | yellow | 97.59% | 2.41% | yellow | 97.47% | 2.53% | yellow | 99.65% | 0.35% | yellow | 99.59% | 0.41% | yellow | 99.63% | 0.37% | yellow | 99.63% | 0.37% | yellow | 99.43% | Total impurity (%) [3, 7]: 0.57%; Stability under high temperature, high humidity and illumination condition (in words) [4]: better stability
3 | COC(=O)C1=C(CN2CCOC[C@H]2C(=O)O)NC(c2nccs2)=N[C@H]1c1ccc(F)cc1Cl [(S)-4-(((R)-6-(2-chloro-4-fluorophenyl)-5-(methoxycarbonyl)-2-(thiazol-2-yl)-3,6-dihydropyrimidin-4-yl)methyl)morpholine-3-carboxylic Acid] | a yellow | 93.72% | 6.28% | a yellow | 90.56% | 9.44% | a yellow | 97.51% | 2.49% | a yellow | 97.42% | 2.58% | a yellow | 97.54% | 2.46% | a yellow | 96.99% | 3.01% | a yellow | 95.65% | Hygroscopicity (in words) [5]: certain hygroscopicity; Weighting percentage of moisture absorption (%) ([5]; 25° C.±1° C., 24 hours, listed as Compound (I) prepared by Example 1): 1.441%; Weighting percentage of moisture absorption (%) ([5]; 25° C.±1° C., 24 hours, listed as compound (I)): 1.441%; Total impurity (%) [3, 7]: 4.35%
4 | COC(=O)C1=C(CN2CCOC[C@H]2C(=O)O)N=C(c2nccs2)N[C@H]1c1ccc(F)cc1Cl.O=C(O)C(O)C(O)C(=O)O [Complex of (S)-4-(((R)-6-(2-chloro-4-fluorophenyl)-5-(methoxycarbonyl)-2-(thiazol-2-yl)-1,6-dihydropyrimidin-4-yl)methyl)morpholine-3-carboxylic Acid and L-tartaric Acid] | yellow | 99.86% | 0.14% | yellow | 99.84% | 0.16% | yellow | 99.84% | 0.16% | yellow | 99.82% | 0.18% | yellow | 99.85% | 0.15% | yellow | 99.83% | 0.17% | yellow | 99.84% | Hygroscopicity (in words) [5]: much smaller; Judgement of hygroscopicity result ([5]; 25° C.±1° C., 24 hours): of no or little hygroscopicity; Weighting percentage of moisture absorption (%) ([5]; 25° C.±1° C., 24 hours, listed as Crystalline form I(A) of the complex of compound (Ia) and L-tartaric acid): 0.029%; Weighting percentage of moisture absorption (%) ([5]; 25° C.±1° C., 24 hours, listed as crystalline form I(A) of the complex of compound (Ia) and L-tartaric acid): 0.029%; Solubility (in words) (Solubility (HPLC)): good solubility; Total impurity (%) [3, 7]: 0.16%; oxide impurities ([3]; preparation purity, from Table 4): less than 0.2%; Stability under high temperature, high humidity and illumination condition (in words) [4]: best stability; Change of appearance and purity under high temperature, high humidity and illumination condition ([4]; listed as L-tartaric acid complex having crystalline form I(A)): basically unchanged; Change of appearance and purity under high temperature, high humidity and illumination condition ([4]; listed as complex formed from compound (I) and L-tartaric acid): unchanged substantially
